Publication PMC9136259 (Food Chemistry: X, 2022)

Assays:
[1] = target: T1, xanthine oxidase (XOD, from bovine milk) (Bos taurus, UniProt P80457); test: xanthine oxidation, absorbance at […] nm, microplate; type: biochemical
[2] = target: T1, xanthine oxidase (XOD, from bovine milk); test: intrinsic fluorescence quenching; type: binding; conditions: 0.2 M PBS pH 7.5; 298, 304 and 310 K; static quenching

T1 sequence (P80457 2-1332): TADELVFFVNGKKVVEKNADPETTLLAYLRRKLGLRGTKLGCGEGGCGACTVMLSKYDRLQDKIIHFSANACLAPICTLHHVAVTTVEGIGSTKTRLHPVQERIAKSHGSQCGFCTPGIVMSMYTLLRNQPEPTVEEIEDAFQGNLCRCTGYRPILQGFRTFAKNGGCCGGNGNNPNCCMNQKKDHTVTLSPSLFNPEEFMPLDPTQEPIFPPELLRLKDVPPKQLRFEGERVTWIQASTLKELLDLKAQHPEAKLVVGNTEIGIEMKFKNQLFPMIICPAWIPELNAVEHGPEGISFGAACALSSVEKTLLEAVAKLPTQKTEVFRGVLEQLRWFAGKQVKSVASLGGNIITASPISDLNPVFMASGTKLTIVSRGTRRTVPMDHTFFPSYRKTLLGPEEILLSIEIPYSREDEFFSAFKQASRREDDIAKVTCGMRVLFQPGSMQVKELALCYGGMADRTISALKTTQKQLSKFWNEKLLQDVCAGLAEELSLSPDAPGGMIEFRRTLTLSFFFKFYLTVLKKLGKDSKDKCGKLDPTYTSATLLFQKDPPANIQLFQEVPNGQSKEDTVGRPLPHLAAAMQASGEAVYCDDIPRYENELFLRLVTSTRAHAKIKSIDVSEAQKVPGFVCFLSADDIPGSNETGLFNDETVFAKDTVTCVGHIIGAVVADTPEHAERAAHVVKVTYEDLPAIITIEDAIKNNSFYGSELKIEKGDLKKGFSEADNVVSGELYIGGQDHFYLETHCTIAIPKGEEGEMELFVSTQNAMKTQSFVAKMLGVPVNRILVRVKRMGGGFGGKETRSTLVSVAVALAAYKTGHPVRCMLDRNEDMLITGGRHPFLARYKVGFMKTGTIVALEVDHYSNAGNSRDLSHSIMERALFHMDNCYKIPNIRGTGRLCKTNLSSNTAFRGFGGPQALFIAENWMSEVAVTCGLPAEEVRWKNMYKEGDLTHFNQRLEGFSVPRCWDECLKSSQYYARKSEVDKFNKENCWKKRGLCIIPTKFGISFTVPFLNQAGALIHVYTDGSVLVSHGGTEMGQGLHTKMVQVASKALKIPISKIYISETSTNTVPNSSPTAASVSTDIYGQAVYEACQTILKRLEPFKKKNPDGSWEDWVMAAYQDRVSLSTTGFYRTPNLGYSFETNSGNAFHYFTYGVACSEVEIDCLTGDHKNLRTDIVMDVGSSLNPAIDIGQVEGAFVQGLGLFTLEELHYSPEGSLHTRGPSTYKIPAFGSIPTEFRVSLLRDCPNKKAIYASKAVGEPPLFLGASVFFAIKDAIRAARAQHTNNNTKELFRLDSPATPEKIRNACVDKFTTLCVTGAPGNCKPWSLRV

| SMILES | IC50 [1] | intrinsic fluorescence quenching (Stern-Volmer), excitation 280 nm [2] |
| --- | --- | --- |
| CC(=O)c1c(O)cccc1O [2,6-Dihydroxyacetophenone] | 1240 ± 20 µM | fluorescence quenching mechanism of DHAP, 4-HPEA and HBA for XOD were a single type |
| O=Cc1ccc(O)cc1 [4-Hydroxybenzaldehyde] | 2.67 ± 0.9 µM | fluorescence quenching mechanism of DHAP, 4-HPEA and HBA for XOD were a single type |
| OCCc1ccc(O)cc1 [4-Hydroxyphenethyl alcohol] | 24500 ± 800 µM | fluorescence quenching mechanism of DHAP, 4-HPEA and HBA for XOD were a single type |
